Laboratory results reported in PubChem BioAssay (NCI).
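Protocol summary: plate cells (96-well), add compound at 5 concentrations, incubate 48 h, interpolate endpoints linearly. TGI: concentration producing complete growth inhibition.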

Key:
Assay in all cases: NCI-60 cell line screen, 48 h
786-0 renal = test system: 786-0 renal
A498 renal = test system: A498 renal
A549 NSCLC = test system: A549 NSCLC
ACHN renal = test system: ACHN renal
BT-549 breast = test system: BT-549 breast
CAKI-1 renal = test system: CAKI-1 renal
CCRF-CEM leukemia = test system: CCRF-CEM leukemia
COLO 205 colon = test system: COLO 205 colon
DU-145 prostate = test system: DU-145 prostate
EKVX NSCLC = test system: EKVX NSCLC
HCC-2998 colon = test system: HCC-2998 colon
HCT-116 colon = test system: HCT-116 colon
HCT-15 colon = test system: HCT-15 colon
HL-60(TB) leukemia = test system: HL-60(TB) leukemia
HOP-62 NSCLC = test system: HOP-62 NSCLC
HOP-92 NSCLC = test system: HOP-92 NSCLC
HS 578T breast = test system: HS 578T breast
HT29 colon = test system: HT29 colon
IGROV1 ovarian = test system: IGROV1 ovarian
K-562 leukemia = test system: K-562 leukemia
KM12 colon = test system: KM12 colon
LOX IMVI melanoma = test system: LOX IMVI melanoma
M14 melanoma = test system: M14 melanoma
MCF7 breast = test system: MCF7 breast
MDA-MB-231 breast = test system: MDA-MB-231 breast
MDA-MB-435 = test system: MDA-MB-435
MDA-N = test system: MDA-N
MOLT-4 leukemia = test system: MOLT-4 leukemia
NCI-H226 lung = test system: NCI-H226 lung
NCI-H23 lung = test system: NCI-H23 lung
NCI-H460 lung = test system: NCI-H460 lung
NCI-H522 lung = test system: NCI-H522 lung
NCI/ADR-RES ovarian = test system: NCI/ADR-RES ovarian
OVCAR-3 ovarian = test system: OVCAR-3 ovarian
OVCAR-4 ovarian = test system: OVCAR-4 ovarian
OVCAR-5 ovarian = test system: OVCAR-5 ovarian
OVCAR-8 ovarian = test system: OVCAR-8 ovarian
PC-3 prostate = test system: PC-3 prostate
RPMI-8226 leukemia = test system: RPMI-8226 leukemia
RXF 393 renal = test system: RXF 393 renal
SF-268 CNS = test system: SF-268 CNS
SF-295 CNS = test system: SF-295 CNS
SF-539 CNS = test system: SF-539 CNS
SK-MEL-2 melanoma = test system: SK-MEL-2 melanoma
SK-MEL-28 melanoma = test system: SK-MEL-28 melanoma
SK-MEL-5 melanoma = test system: SK-MEL-5 melanoma
SK-OV-3 ovarian = test system: SK-OV-3 ovarian
SN12C renal = test system: SN12C renal
SNB-19 CNS = test system: SNB-19 CNS
SNB-75 CNS = test system: SNB-75 CNS
SR leukemia = test system: SR leukemia
SW-620 colon = test system: SW-620 colon
T-47D breast = test system: T-47D breast
TK-10 renal = test system: TK-10 renal
U251 CNS = test system: U251 CNS
UACC-257 melanoma = test system: UACC-257 melanoma
UACC-62 melanoma = test system: UACC-62 melanoma
UO-31 renal = test system: UO-31 renal

For COC1=CC(=O)c2c(c(-c3csc(C)n3)cn2C)C1=O, the TGI (786-0 renal) was over 76.7 µM, the TGI (A498 renal) was 72.6 µM and the TGI (A549 NSCLC) was over 41.6 µM. The TGI (ACHN renal) was over 71.9 µM, the TGI (BT-549 breast) was over 100 µM and the TGI (CAKI-1 renal) was over 73.5 µM. For the same molecule, the TGI (CCRF-CEM leukemia) was over 94.4 µM, the TGI (COLO 205 colon) was over 71.1 µM and the TGI (DU-145 prostate) was over 45.9 µM. For the same molecule, the TGI (EKVX NSCLC) was 77.9 µM, the TGI (HCC-2998 colon) was over 100 µM and the TGI (HCT-116 colon) was over 77.5 µM. For the same molecule, the TGI (HCT-15 colon) was over 52.5 µM, the TGI (HL-60(TB) leukemia) was 23.9 µM and the TGI (HOP-62 NSCLC) was over 68.4 µM. For the same molecule, the TGI (HOP-92 NSCLC) was over 100 µM, the TGI (HS 578T breast) was over 100 µM and the TGI (HT29 colon) was 91.6 µM. It also gave a TGI (IGROV1 ovarian) of 72.2 µM, a TGI (K-562 leukemia) of over 100 µM and a TGI (KM12 colon) of over 100 µM. For the same molecule, the TGI (LOX IMVI melanoma) was over 100 µM, the TGI (M14 melanoma) was over 100 µM and the TGI (MCF7 breast) was over 69.5 µM. For the same molecule, the TGI (MDA-MB-231 breast) was over 86.6 µM, the TGI (MDA-MB-435) was 26.8 µM and the TGI (MDA-N) was 35.1 µM. For the same molecule, the TGI (MOLT-4 leukemia) was over 100 µM, the TGI (NCI-H226 lung) was over 100 µM and the TGI (NCI-H23 lung) was 15 µM. For the same molecule, the TGI (NCI-H460 lung) was 19.9 µM, the TGI (NCI-H522 lung) was 91.4 µM and the TGI (NCI/ADR-RES ovarian) was over 79.1 µM. The TGI (OVCAR-3 ovarian) was 36.4 µM, the TGI (OVCAR-4 ovarian) was over 100 µM and the TGI (OVCAR-5 ovarian) was over 95 µM. The TGI (OVCAR-8 ovarian) was over 94.8 µM, the TGI (PC-3 prostate) was over 68.6 µM and the TGI (RPMI-8226 leukemia) was over 19.8 µM. It also gave a TGI (RXF 393 renal) of 43.3 µM, a TGI (SF-268 CNS) of over 100 µM and a TGI (SF-295 CNS) of over 67.1 µM. It also gave a TGI (SF-539 CNS) of 54.7 µM, a TGI (SK-MEL-2 melanoma) of over 63.8 µM and a TGI (SK-MEL-28 melanoma) of over 100 µM. It also gave a TGI (SK-MEL-5 melanoma) of 4.97 µM, a TGI (SK-OV-3 ovarian) of over 100 µM and a TGI (SN12C renal) of over 68.9 µM. For the same molecule, the TGI (SNB-19 CNS) was over 81.2 µM, the TGI (SNB-75 CNS) was 19 µM and the TGI (SR leukemia) was over 100 µM. It also gave a TGI (SW-620 colon) of over 100 µM, a TGI (T-47D breast) of over 64.3 µM and a TGI (TK-10 renal) of over 100 µM. The TGI (U251 CNS) was over 100 µM, the TGI (UACC-257 melanoma) was 32.6 µM and the TGI (UACC-62 melanoma) was 42.5 µM. It also gave a TGI (UO-31 renal) of over 73.4 µM.
